According to US8633251B2, “Derivatives of aminoalkanols, method of obtaining of aminoalkanols and their use” (Uniwersytet Jagiellonski, priority 2008, dated 2014):
Structures can show the parent of a compound that is named as a salt. Where two headings read alike, the source gives them in different places.

Tests used:
Type in all cases: in vivo
neurotoxicity (rotarod) = assay: Neurotoxicity test (TOX), rotarod, mice
[1] = test system: pentylenetetrazol-induced seizures; assay: Subcutaneous Metrazol Test (ScMet), mice
Procedure: In order to define anticonvulsant activity, screening tests were performed, using animal models of seizures. […] The tests were based on administration of a compound to an animal and after certain time inducing state similar to epilepsy attack in human. Each substance (after dissolving in methylcellulose) was normally tested in doses 30, 100, and 300 mg/kg body weight (b.w.) (mice) or in 30 and 50 mg/kg b.w. (rats) in two possible routes of administration: intraperitoneal (i.p.) or oral (p.o.). Appropriate tests were performed 0.5 and 4 h after administration of the compound. […] (mice) the tests were also performed in doses 10 and 3 mg/kg b.w.
Subcutaneous Metrazol Test (ScMet) is a chemical test, where compounds are tested for activity in absence seizures (petit mal epilepsy). Pentetrazol (metrazol) is considered to block chloride channel in the GABAA receptor complex, therefore at a certain dose in animals it causes myoclonic jerks, next—clonic seizures, and then tonic seizures. The procedure consists in administration of a tested compound and after 0.5 or 4 h subcutaneous administration of pentylenetetrazol in the dose of 85 mg/kg b.w. (mice) or 70 mg/kg b.w. (rats) in a 0.85% solution in 0.9% NaCl. […] Normally the test is performed in single animals.

[2] = test system: maximal electroshock seizures; assay: Maximum Electroshock Seizure (MES) test, mice; conditions: for responders at 100 mg/kg: read-out: MES, No. of protected animals/No. of used animals (converted)
Outline: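 Mice received compound in methylcellulose i.p. or p.o. at 30, 100 and 300 mg/kg, with some tests at 10 and 3 mg/kg. At 0.5 or 4 h, after tetracaine eye-drops, current was delivered through corneal electrodes (60 Hz, 0.2 s, 50 mA). Groups were one mouse at 30 and 300 mg/kg and three at 100 mg/kg.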

[3] = mice, dose 100 mg/kg b.w., time 0.5 h
[4] = mice, dose 100 mg/kg b.w., time 4 h
[5] = mice, dose 300 mg/kg b.w., time 0.5 h
[6] = mice, dose 300 mg/kg b.w., 0.5 h
[7] = mice, dose 100 mg/kg b.w., 0.5 h
[8] = mice, dose 30 mg/kg b.w., time 0.5 h
[9] = Mus musculus, 0.5 h, read-out: MES, No. of protected animals/No. of used animals

Cc1cccc(OCCNCC(O)c2ccccc2)c1C (stereo not drawn) [Compound 4, R,S-2N-[(2,3-dimethylphenoxy)ethyl]amino-1-phenylethanol]
TOX, No. of animals exhibiting motor impairment/no. of used animals (neurotoxicity (rotarod); [3]): 4/8 | TOX, No. of animals exhibiting motor impairment/no. of used animals (neurotoxicity (rotarod); [4]): 1/4 | TOX, No. of animals exhibiting motor impairment/no. of used animals (neurotoxicity (rotarod); [5]): 3/4 | ScMet, No. of protected animals/No. of used animals ([1]; dose 30 mg/kg b.w., time 0.5 h): 1/5

Cc1cccc(C)c1OCC(=O)N(C)CCO [Compound 59, R,S-2N-[(2,6-dimethylphenoxy)acetyl]-2N-methylamino-1-ethanol]
MES, No. of protected animals/No. of used animals [2, 6]: 1/1 | ScMet, No. of protected animals/No. of used animals ([1]; dose 300 mg/kg b.w., 0.5 h): 1/1

CCC(O)CNC(=O)COc1ccc(Cl)cc1C (stereo not drawn) [Compound 81, R,S-1N-[(4-chlor-2-methylphenoxy)acetyl]amino-2-butanol]
TOX, No. of animals exhibiting motor impairment/no. of used animals (neurotoxicity (rotarod); [6]): 4/4 | MES, No. of protected animals/No. of used animals [2, 6]: 1/1 | ScMet, No. of protected animals/No. of used animals ([1]; dose 300 mg/kg b.w., 0.5 h): 1/1

CCC(O)CNCCCOc1c(C)cccc1C (racemic) [Compound 54, R,S-1N-[(2,6-dimethylphenoxy)propyl]amino-2-butanol]
TOX, No. of animals exhibiting motor impairment/no. of used animals (neurotoxicity (rotarod); mouse, in vivo, 30 mg/kg): 1/4 | TOX, No. of animals exhibiting motor impairment/no. of used animals (neurotoxicity (rotarod); mouse, in vivo, 300 mg/kg): 4/4 | MES, No. of protected animals/No. of used animals [2, 7]: 2/2 | ScMet, No. of protected animals/No. of used animals ([1]; dose 30 mg/kg b.w., 0.5 h): 1/5 | ScMet, No. of protected animals/No. of used animals ([1]; dose 30 mg/kg b.w., 4 h): 1/1

Cc1cccc(Cl)c1OCC(=O)NCC(C)O (stereo not drawn) [Compound 68, R,S-1N-[(2-chlor-6-methylphenoxy)acetyl]amino-2-propanol]
TOX, No. of animals exhibiting motor impairment/no. of used animals (neurotoxicity (rotarod); [6]): 4/4 | MES, No. of protected animals/No. of used animals [2, 6]: 1/1 | ED50 (MES, mice, i.p.) ([2]; mice, i.p., time not given): 97.93 mg/kg b.w. | ScMet, No. of protected animals/No. of used animals ([1]; dose 300 mg/kg b.w., 0.5 h): 1/1

Cc1cc(Cl)ccc1OCC(=O)NCC(C)O (stereo not drawn) [Compound 80, R,S-1N-[(4-chlor-2-methylphenoxy)acetyl]amino-2-propanol]
TOX, No. of animals exhibiting motor impairment/no. of used animals (neurotoxicity (rotarod); [6]): 4/4 | MES, No. of protected animals/No. of used animals [2, 6]: 1/1 | ScMet, No. of protected animals/No. of used animals ([1]; dose 300 mg/kg b.w., 0.5 h): 1/1

Cc1ccc(C)c(OCCNCC(C)O)c1 (stereo not drawn) [Compound 5, R,S-1N-[(2,5-dimethylphenoxy)ethyl]amino-2-propanol]
TOX, No. of animals exhibiting motor impairment/no. of used animals (neurotoxicity (rotarod); mouse, in vivo, 300 mg/kg): 4/4 | MES, No. of protected animals/No. of used animals [2, 3]: 3/3

CCC(CO)NC(=O)COc1c(C)cccc1Cl (stereo not drawn) [Compound 73, R,S-2N-[(2-chlor-6-methylphenoxy)acetyl]amino-1-butanol]
TOX, No. of animals exhibiting motor impairment/no. of used animals (neurotoxicity (rotarod); [6]): 4/4 | MES, No. of protected animals/No. of used animals [2, 6]: 1/1 | MES, No. of protected animals/No. of used animals ([2]; mice, dose 300 mg/kg b.w., 4 h): 1/1 | ScMet, No. of protected animals/No. of used animals ([1]; dose 100 mg/kg b.w., 0.5 h): 3/5 | ScMet, No. of protected animals/No. of used animals ([1]; dose 300 mg/kg b.w., 0.5 h): 1/1

R,S-2N-[(4-chlor-2-methylphenoxy)ethyl]amino-1-propanol [Compound 33]
TOX, No. of animals exhibiting motor impairment/no. of used animals (neurotoxicity (rotarod); [3]): 4/8 | TOX, No. of animals exhibiting motor impairment/no. of used animals (neurotoxicity (rotarod); [5]): 4/4 | MES, No. of protected animals/No. of used animals [2, 3]: 3/3

Cc1cc(C)c(OCCNCC(O)c2ccccc2)c(C)c1 (stereo not drawn) [Compound 45, R,S-2N-[(2,4,6-trimethylphenoxy)ethyl]amino-1-phenylethanol]
TOX, No. of animals exhibiting motor impairment/no. of used animals (neurotoxicity (rotarod); [5]): 3/4 | MES, No. of protected animals/No. of used animals [2, 3]: 3/3 | MES, No. of protected animals/No. of used animals [2, 5]: 1/1 | MES, No. of protected animals/No. of used animals ([2]; mice, dose 300 mg/kg b.w., time 4 h): 1/1

Cc1cccc(C)c1OCCNC(C)(C)CCO [Compound 15, 3N-[(2,6-dimethylphenoxy)ethyl]amino-3-methyl-1-butanol hydrochloride]
TOX, No. of animals exhibiting motor impairment/no. of used animals (neurotoxicity (rotarod); mice, dose 10 mg/kg b.w., time 0.5 h): 7/8 | TOX, No. of animals exhibiting motor impairment/no. of used animals (neurotoxicity (rotarod); [8]): 4/4 | TOX, No. of animals exhibiting motor impairment/no. of used animals (neurotoxicity (rotarod); [5]): 7/8 | responders at 10 mg/kg [2, 9]: 100% | responders at 300 mg/kg [2, 9]: 100%

CCC(CO)NCCOc1c(C)cccc1Cl.Cl (stereo not drawn) [Compound 26a, R,S-2N-[(2-chlor-6-methylphenoxy)ethyl]amino-1-butanol hydrochloride]
TOX, No. of animals exhibiting motor impairment/no. of used animals (neurotoxicity (rotarod); [8]): 3/4 | TOX, No. of animals exhibiting motor impairment/no. of used animals (neurotoxicity (rotarod); [3]): 8/8 | TOX, No. of animals exhibiting motor impairment/no. of used animals (neurotoxicity (rotarod); [4]): 1/4 | TOX, No. of animals exhibiting motor impairment/no. of used animals (neurotoxicity (rotarod); [5]): 4/4 | MES, No. of protected animals/No. of used animals [2, 8]: 1/1 | MES, No. of protected animals/No. of used animals [2, 3]: 1/1

Cc1cccc(OCCNC(C)(C)CO)c1C [Compound 3, 2N-[(2,3-dimethylphenoxy)ethyl]amino-2-methyl-1-propanol]
TOX, No. of animals exhibiting motor impairment/no. of used animals (neurotoxicity (rotarod); [3]): 7/8 | TOX, No. of animals exhibiting motor impairment/no. of used animals (neurotoxicity (rotarod); [5]): 4/4 | responders at 100 mg/kg ([2]; Mus musculus, mice, dose 100 mg/kg b.w., time 0.5 h): 66.7%

Cc1cccc(C)c1OCCNC(C)CO.Cl (stereo not drawn) [Compound 11a, R,S-2N-[(2,6-dimethylphenoxy)ethyl]amino-1-propanol hydrochloride]
TOX, No. of animals exhibiting motor impairment/no. of used animals (neurotoxicity (rotarod); mouse, in vivo, 30 mg/kg): 3/4 | TOX, No. of animals exhibiting motor impairment/no. of used animals (neurotoxicity (rotarod); mouse, in vivo, 100 mg/kg): 8/8 | TOX, No. of animals exhibiting motor impairment/no. of used animals (neurotoxicity (rotarod); mouse, in vivo, 300 mg/kg): 4/4 | MES, No. of protected animals/No. of used animals [2, 8]: 1/1 | MES, No. of protected animals/No. of used animals [2, 3]: 1/1

Cc1cccc(OCCCNC(C)CO)c1C (racemic) [Compound 46, R,S-2N-[(2,3-dimethylphenoxy)propyl]amino-1-propanol]
TOX, No. of animals exhibiting motor impairment/no. of used animals (neurotoxicity (rotarod); mouse, in vivo, 100 mg/kg): 8/8 | TOX, No. of animals exhibiting motor impairment/no. of used animals (neurotoxicity (rotarod); mouse, in vivo, 300 mg/kg): 4/4 | MES, No. of protected animals/No. of used animals [2, 3]: 3/3

Cc1cccc(C)c1OCCCNCC(C)O (racemic) [Compound 50, R,S-1N-[(2,6-dimethylphenoxy)propyl]amino-2-propanol]
TOX, No. of animals exhibiting motor impairment/no. of used animals (neurotoxicity (rotarod); mouse, in vivo, 30 mg/kg): 3/4 | TOX, No. of animals exhibiting motor impairment/no. of used animals (neurotoxicity (rotarod); mouse, in vivo, 300 mg/kg): 4/4 | MES, No. of protected animals/No. of used animals [2, 8]: 1/1 | MES, No. of protected animals/No. of used animals [2, 3]: 3/3

CNC(=O)C(C)NC(=O)COc1c(C)cccc1C (racemic) [Compound 67, D,L-2N-[(2,6-dimethylphenoxy)acetyl]aminopropionic acid N-methylamide]
TOX, No. of animals exhibiting motor impairment/no. of used animals (neurotoxicity (rotarod); [7]): 1/8 | TOX, No. of animals exhibiting motor impairment/no. of used animals (neurotoxicity (rotarod); [6]): 4/4 | responders at 100 mg/kg ([2]; Mus musculus, mice, dose 100 mg/kg b.w., 0.5 h): 66.7% | responders at 300 mg/kg ([2]; Mus musculus, mice, dose 300 mg/kg b.w., 0.5 h, read-out: MES, No. of protected animals/No. of used animals): 100%

CCC(O)CNCCOc1cc(C)ccc1C (stereo not drawn) [Compound 7, R,S-1N-[(2,5-dimethylphenoxy)ethyl]amino-2-butanol]
TOX, No. of animals exhibiting motor impairment/no. of used animals (neurotoxicity (rotarod); mouse, in vivo, 100 mg/kg): 8/8 | TOX, No. of animals exhibiting motor impairment/no. of used animals (neurotoxicity (rotarod); mouse, in vivo, 300 mg/kg): 4/4 | MES, No. of protected animals/No. of used animals [2, 3]: 3/3 | MES, No. of protected animals/No. of used animals [2, 5]: 1/1

CCC(O)CNCCOc1c(C)cccc1Cl (stereo not drawn) [Compound 25, R,S-1N-[(2-chlor-6-methylphenoxy)ethyl]amino-2-butanol]
TOX, No. of animals exhibiting motor impairment/no. of used animals (neurotoxicity (rotarod); [3]): 8/8 | TOX, No. of animals exhibiting motor impairment/no. of used animals (neurotoxicity (rotarod); [5]): 4/4 | MES, No. of protected animals/No. of used animals [2, 8]: 1/1
